Source: a melting point compilation (Tetko et al.; mined from patent text by program, amines drawn as free bases though some values may be those of a salt)

`COC(=O)C(Cc1ccc(OCc2ccccc2)cc1)NC(=O)c1cc2ccc(-c3ccc(Cl)cc3)cc2s1` (configuration not stated) gave a melting point of 200 to 201 °C. Compound `CCOC(=O)N1CCC(=C2c3ccccc3CCn3c(CO)cnc32)CC1` has a melting point of 192 °C. Work on `O=C(O)CCCCCCCCCCc1ccc(Cl)cc1` yielded a melting point of 93 °C. Work on `O=C1c2cccc(NC(=S)Nc3ncccc3Br)c2C2CCCCN12` (configuration not stated) yielded a melting point of 180 °C. In the case of `COC(=O)Cn1c(=O)sc2cc(Br)c(Cl)cc21`, the melting point is reported as 209 to 210 °C. `FC(F)(F)c1ccc(-c2cc(C(F)(F)F)cc(Br)n2)cc1` gave a melting point of 35 to 37 °C. In the case of `CCS(=O)(=O)N(c1ccc(F)cc1Br)S(=O)(=O)CC`, the melting point is reported as 114 to 116 °C. `CC1(C)Oc2ccc(S(=O)(=O)c3ccccc3)cc2[C@@H](N2CCCC2=O)[C@@H]1O` (relative stereo) showed a melting point of 200 to 201 °C. Work on `C/C(=C\c1cc(F)cc(F)c1)C(=O)O` yielded a melting point of 148 °C. Work on `O=C(C(Cl)=Cn1ccnc1)c1ccc(Cl)cc1Cl` yielded a melting point of 149 to 151 °C. For `O=C(Nc1cccnc1)N1CCN(c2nccc(-c3c(F)cccc3F)n2)CC1`, the melting point was 185 to 186 °C. `CCOC(=O)c1sc2nc(C)c(CC)c(=O)n2c1C` gave a melting point of 122 to 124 °C. With `CC1Oc2ccc(CN3CCN(c4nc(-c5ccccc5)ns4)CC3)cc2NC1=O` (configuration not stated) the melting point was 192 to 221 °C. For `NS(=O)(=O)c1ccc(-c2cnn(CC=C(F)F)c(=O)c2-c2ccc(F)cc2)cc1`, the melting point was 191 to 194 °C. `O=[N+]([O-])c1ccc2c(c1)S(=O)(=O)NCN2C1CC1` showed a melting point of 198 to 201 °C. In the case of `CCCCCCc1cc2c(s1)NC(=O)C(C)N=C2c1ccccc1C` (configuration not stated), the melting point is reported as 173 to 175 °C. With `COc1ccc2c(c1)Sc1ccccc1C(=S)N2` the melting point was 239 to 241 °C. Compound `O=C(Nc1ncnc2c1ncn2CC(O)CF)c1ccccc1` (racemic) has a melting point of 197 °C. With `COc1ccc2occ(CCN3CCN(c4cccc5cccnc45)CC3)c2c1` the melting point was 78 °C. For `CCc1cc(OC)c(N)c2ccccc12`, the melting point was 80 °C. Work on `CS(=O)(=O)c1ccc(S(=O)(=O)N2CCCC(c3ccc(Cl)c(Cl)c3)=N2)cc1` yielded a melting point of 181 to 183 °C. With `CC(=O)OC1CSC(Oc2ccc(C(C)=O)nc2)C(OC(C)=O)C1OC(C)=O` (configuration not stated) the melting point was 149 °C. Compound `COC(=O)c1cc(NC(=O)c2ccccc2Cl)c2cc(Cc3ccc(F)cc3)cnc2c1O` has a melting point of 230 to 232 °C. `O=C(NO)c1cc2ccccc2cn1` showed a melting point of 160 to 165 °C. Work on `OC1CCCc2nc3ccccc3c(NCCCOc3ccccc3)c21` (configuration not stated) yielded a melting point of 138 to 140 °C. `CC(=O)N1CCC2(CC1)CSC1=C(O2)c2ccccc2C(=O)C1=O` showed a melting point of 252 to 255 °C. In the case of `CN1CCC(c2c[nH]c3ccc(NC(=O)c4ccccc4)nc23)CC1`, the melting point is reported as 111 to 114 °C. `CCc1ccc(-c2ccc(CCc3ccc(C)cc3)cc2)c(F)c1` showed a melting point of 65 °C. With `Cc1cc(C)nc(N(C(=O)n2cncn2)c2ccccc2)n1` the melting point was 157 °C. Work on `O=C1C2CN(Cc3ccccc3)CC2C(=O)N1Cc1ccccc1` (configuration not stated) yielded a melting point of 100 °C. With `CCCCn1c(=O)n(CCC)c(=O)c2c(N)n[nH]c21` the melting point was 209 to 211 °C. Compound `CCOP(=S)(OCC)N1C(=O)c2ccccc2C1=O` has a melting point of 81 to 83 °C. In the case of `CC(=O)C(C)(O)C1(C)OC(C)=CC1=O` (configuration not stated), the melting point is reported as 95 to 96 °C. For `CC1(C(O)C(Cc2ccc(Cl)cc2)n2cncn2)COCOC1` (configuration not stated), the melting point was 152 to 154 °C. `COC(=O)c1nn(C2CCCCO2)cc1NC(=O)c1ccc(C)nc1` (configuration not stated) gave a melting point of 142 to 143 °C. `Nc1ccccc1C(=O)NC1CCCCC1` showed a melting point of 152 to 154 °C. For `Cc1c(C)c2c(c(C)c1O)CCC(C)(C(=O)Nc1ccccc1)O2` (configuration not stated), the melting point was 107 to 109 °C. In the case of `O=C1N(Cc2ccccn2)c2cccc(-c3ccc(Oc4ccccc4)cc3)c2C12COc1cc3c(cc12)OCCO3` (configuration not stated), the melting point is reported as 196 to 199 °C. For `Nc1nc(O)nc2nc(-c3ccco3)nn12`, the melting point was > 300 °C. Compound `Cc1ccccc1SN(C(=O)NC(=O)c1ccccc1Cl)c1ccc(OC(F)(F)F)cc1` has a melting point of 79 to 80 °C. In the case of `Cc1ccc2[nH]c(=O)c(-c3ccccc3)cc2c1`, the melting point is reported as 212 to 213 °C. In the case of `CCOC(=O)C1Cc2c([nH]c3cccc(C#N)c23)CN1` (configuration not stated), the melting point is reported as 248 °C. `CCCCn1cnc2c(OCc3cccs3)nc(Nc3ccc(OCC)nc3)nc21` gave a melting point of 112 to 114 °C. Work on `CC(=O)c1cc(C(N)=O)cs1` yielded a melting point of 156 to 158 °C. With `Cc1ccc(F)cc1C(=O)Nc1ccc(C(=O)N2Cc3ccccc3Oc3ncccc32)cn1` the melting point was 187 to 189 °C. `CC(=O)Oc1ccc(CC(=O)Nc2ncc(-c3ccc(OC(C)=O)cc3)nc2Cc2ccccc2)cc1` showed a melting point of 225 to 227 °C. For `NC(=O)c1cc(COc2nnc(Nc3ccc(Cl)cc3)c3ccsc23)ccn1`, the melting point was 233 °C. Compound `COc1ccccc1N1CCN(CC=CCN)CC1` has a melting point of 63 to 67 °C. Compound `CC(=C(c1ccc(N(C)C)cc1)c1ccc(N(C)C)cc1)P(C(C)(C)C)C(C)(C)C` has a melting point of 133 to 135 °C. `Nc1nc(=O)n(C(=O)OCc2ccccc2)cc1F` gave a melting point of 212 to 215 °C. In the case of `CC=CCN(CCC12CC3CC(CC(C3)C1)C2)C(=O)NCCCc1ccncc1`, the melting point is reported as 89.5 to 93.5 °C. Compound `CCOC(=O)Cc1ccc(Cc2n[nH]c3c2c(=O)n(-c2ccccc2)c2ncccc32)cc1` has a melting point of 263 to 264 °C. With `COCc1cnc2c(NC(=O)c3c(Cl)cccc3Cl)cc(C)cc2c1Cl` the melting point was 156 to 158 °C. In the case of `COC(=O)C1=C(C(=O)OC)C2(c3ccc(Cl)cc3)CCC1O2` (configuration not stated), the melting point is reported as 90 to 91 °C. In the case of `O=C1CCNc2cc(Cl)c(F)cc21`, the melting point is reported as 192 to 194 °C. For `CN(Cc1ccc(F)cc1)C1CCN(c2ccc(C(=O)O)cc2)CC1`, the melting point was 256 to 258 °C. In the case of `FC(F)(F)c1cc(-c2ccc(Br)cc2)nc2c(-c3ccncc3)cnn12`, the melting point is reported as 289 °C. For `Oc1ccc(Nc2ccn(Cc3ccccc3)n2)cc1`, the melting point was 114 to 116 °C. Work on `CC(Oc1ccc(Oc2ncc(Cl)cc2Cl)cc1)C(=O)N1CCCO1` (configuration not stated) yielded a melting point of 106 to 108 °C. Work on `COC(OC)C(C)n1nnc2ccc(OCc3ccccc3)cc21` (configuration not stated) yielded a melting point of 101 to 103 °C. In the case of `CCc1cnn(CC(=O)O)c1OCCCc1cn(-c2ccc(C(F)(F)F)cn2)nc1C(C)C`, the melting point is reported as 111 to 112 °C. `COC(=O)c1sc2c(c1O)CN(C(=O)OC(C)(C)C)CC2` gave a melting point of 84.5 to 86 °C. For `COc1ccccc1C(=O)N1CCN(CC2(C)Cc3c(C)c(N)c(C)c(C)c3O2)CC1` (configuration not stated), the melting point was 128 to 131 °C. `COc1cc(-c2cc(C(F)(F)F)nn2-c2ccc(S(C)(=O)=O)c(F)c2)ccc1-c1cscn1` showed a melting point of 155 to 157 °C. For `CC(C)(C)OC(=O)Nc1cc(N2CCC3(CC2)OCCO3)c(I)cc1[N+](=O)[O-]`, the melting point was 132 to 134 °C. With `CN(C)C(=CC(=O)C(F)(F)F)NCc1ccc(Cl)nc1` the melting point was 85 °C. Work on `CCOC(=O)/C(C)=C(/C)c1cn(C(c2ccccc2)(c2ccccc2)c2ccccc2)cn1` yielded a melting point of 166 to 168 °C. With `CCOC(=O)Cn1c(=O)n(Cc2ccc(Br)cc2F)c(=O)c2cc(Cl)c(Cl)cc21` the melting point was 220 to 221 °C. Compound `COC(=O)c1ccc(Cn2c(=O)c(C)c3sc(C(=O)NCc4ccc(OC)cc4)cn3c2=O)cc1` has a melting point of 163 to 165 °C. Compound `Cc1cc(O)ccc1-c1noc2cc(O)ccc12` has a melting point of 229 to 231 °C. For `OCc1nccc2c1CCCC2`, the melting point was 81 to 82 °C. For `COc1cc(OC)c(NC2=Nc3ccccc3CS2)cc1Cl`, the melting point was 157 to 158 °C. `Oc1ccc(Nc2nc(NCc3ccco3)nc(Oc3ccc(O)cc3)n2)cc1` gave a melting point of 80 to 83 °C. `O=C(NC(=O)c1c(F)cccc1F)Nc1cc(Cl)c(Cl)c(Cl)c1` gave a melting point of 231 to 232 °C. `COc1cc2ncnc(N3CCN(C(=S)NCc4ccc([N+](=O)[O-])cc4)CC3)c2cc1OC` gave a melting point of 214 to 216 °C. `COc1cc(CC2NC(=O)NC2=O)cc(OC)c1OC` (configuration not stated) gave a melting point of 180 to 181 °C. In the case of `COc1ccc2ncc(CC(N)C(=O)O)cc2c1` (configuration not stated), the melting point is reported as 246 to 247 °C. In the case of `CN(C(=O)c1ccc2nonc2c1)C1CCOC(=O)C1` (configuration not stated), the melting point is reported as 169 to 171 °C. Work on `N#Cc1ccc2c(c1)ncn2-c1cccc(I)c1` yielded a melting point of 177 to 179 °C. Work on `CC(=O)Nc1ccc(OC(=O)CCl)cc1` yielded a melting point of 186 °C. Work on `CC(C)CC(NC(=O)C(Cc1c[nH]c2ccccc12)NC(=O)OC(C)(C)C)C(=O)NCCC(=O)CCl` (configuration not stated) yielded a melting point of 79 to 81 °C. With `Cc1c(NC(=O)c2ccc(OCc3ccc(Cl)cc3)cc2)ccc2cc(CN3CCCC3)cnc12` the melting point was 167 to 168 °C. Work on `Cc1ncc(CO)c2c1OC(C(F)(F)F)C(C(=O)O)=C2` (configuration not stated) yielded a melting point of 76.1 to 80.1 °C. With `COC(=O)CCc1ccc(N2CCN(c3ccc(CCN)cc3)C2=O)cc1` the melting point was > 200 °C. Work on `O=[N+]([O-])c1ccccc1Cc1n[nH]c(Cl)n1` yielded a melting point of 160 to 163 °C. For `CC(=O)N[C@H]1CC[C@H](c2ccc(S(N)(=O)=O)cc2)CC1`, the melting point was 268 to 269 °C. `CNC(=O)OC(Cn1ccnc1)c1ccc(Cl)cc1Cl` (configuration not stated) gave a melting point of 106 to 108 °C. With `COc1cc(C(=O)NS(=O)(=O)c2ccccc2C)ccc1Cc1cccc2ccc(C(N)=O)cc12` the melting point was 255 to 256 °C. In the case of `O=[N+]([O-])c1cc2c(c3c([N+](=O)[O-])cccc13)C(CCl)CN2` (configuration not stated), the melting point is reported as 130 to 131 °C. `OCc1ccc2nc3c(cc2c1)-c1cccc2cccc-3c12` gave a melting point of 215 to 218 °C. Work on `Oc1ccc(-n2nc3c(c2Cl)CCCC3)c(F)c1` yielded a melting point of 214 to 216 °C. Compound `CC1=C(C(=O)OCCN2CCCCC2)C(c2ccccc2C(F)(F)F)c2c(ccnc2OC(C)C)N1` (configuration not stated) has a melting point of 118 to 120 °C. `COc1ccc(COC(=O)N[C@@H](Cc2ccccc2)C(=O)O)cc1` gave a melting point of 87 to 88 °C. With `COC(=O)c1cc2c(s1)[C@@H](N1CCCCC1=O)[C@H](O)C(C)(C)O2` (relative stereo) the melting point was 104 to 106 °C. `Nc1nc(OCc2ccc(F)cc2)ncc1F` gave a melting point of 129 to 131 °C. Compound `Cc1cc(C#N)c(O)c(C(=O)O)c1` has a melting point of 213 to 214 °C. Work on `CCOC(=O)N1CCC(c2[nH]nc3c2C(=O)c2c(NC(=O)NN4CCOCC4)cccc2-3)CC1` yielded a melting point of 206 to 207 °C. Compound `Nc1cc(Oc2ccccc2)c([N+](=O)[O-])cc1Cl` has a melting point of 122 to 124 °C. For `COc1ccc2c(c1)OCC(c1ccc(C(F)(F)F)cc1)C2c1ccc(OCCN2CCCC2)cc1` (configuration not stated), the melting point was 119 to 120 °C. `CCOC(=O)c1ccc(Cn2c(C)nc3cnccc32)cc1` showed a melting point of 164 to 166 °C. For `FC(F)(F)c1cccc(CSc2nc3cnccc3[nH]2)c1`, the melting point was 148 to 150 °C. `O=C1NC(C(=O)N2CC(O)CC2C(=O)O)CSCCCCCCCC1CS` (configuration not stated) showed a melting point of 124 to 130 °C.
